In patent US20150218654A1, “METHODS FOR PREDICTING MULTIPLE MYELOMA TREATMENT RESPONSE” (INSERM (INSTITUT NATIONAL DE LA SANTÉ ET DE LA RE- CHERCHE …, priority 2012, published 2015):

System: HMCLs XG-5, XG-6, XG-7, XG-20 and LP1
Details: 0.5 μM, 7 days, 5 HMCLs
Description: Control cells were cultured in the same conditions without adding drug. […] Biotinylated cRNA was amplified with a double in vitro transcription and hybridized to the human U133 2.0 plus GeneChips, according to the manufacturer's instructions (Affymetrix, Santa Clara, Calif.). Fluorescence intensities were quantified and analyzed using the GECOS software (Affymetrix). Gene expression data were normalized with the MASS algorithm and analyzed with inventor's bioinformatics platforms-RAGE (http://[…] Amazonia (http://amazonia.[…] /) (36)-or SAM (Significance Analysis of Microarrays) software (37). The statistical significance of differences in overall survival between groups of patients was calculated by the log-rank test. Multivariate analysis was performed using the Cox proportional hazards model. Survival curves were plotted using the Kaplan-Meier method. All these analyses have been done with R.2.10.1 (http://www.r-project.org/) and bioconductor version 2.5. Gene annotation and networks were generated through the use of Ingenuity Pathways Analysis (Ingenuity® Systems, Redwood City, Calif.) (38).

Nc1ncn([C@H]2C[C@H](O)[C@@H](CO)O2)c(=O)n1 [decitabine, 5-Aza-2′-deoxycytidine]
number of genes downregulated (FDR <5%): 79 genes
number of genes significantly upregulated (FDR <5%): 48 genes
Ratio 226719_at (CDNA FLJ34899 fis) (treated vs control): 0.53
Ratio 227755_at (CDNA FLJ42435 fis) (treated vs control): 0.53
Ratio 229969_at (Transcribed locus) (treated vs control): 0.41
Ratio 230570_at (Transcribed locus) (treated vs control): 0.37
Ratio 244623_at (Transcribed locus) (treated vs control): 0.39
Ratio ACRC (238825_at) (treated vs control): 25.99
Ratio ADFP (209122_at) (treated vs control): 3.70
Ratio AIG1 (223136_at) (treated vs control): 0.41
Ratio ALDH1L2 (231202_at) (treated vs control): 0.45
Ratio ARHGAP9 (224451_x_at) (treated vs control): 0.38
Ratio ATP1B1 (201243_s_at) (treated vs control): 3.43
Ratio C6orf48 (220755_s_at) (treated vs control): 0.49
Ratio C10orf57 (222545_s_at) (treated vs control): 0.56
Ratio C12orf5 (219099_at) (treated vs control): 2.16
Ratio C17orf27 (230000_at) (treated vs control): 2.41
Ratio C20orf118 (235964_x_at) (treated vs control): 2.12
Ratio CADPS2 (219572_at) (treated vs control): 0.37
Ratio CBS (212816_s_at) (treated vs control): 0.41
Ratio CBX4 (227558_at) (treated vs control): 0.49
Ratio CCPG1 (214152_at) (treated vs control): 0.44
Ratio COP1 (1552701_a_at) (treated vs control): 2.34
Ratio COPB2 (213500_at) (treated vs control): 0.58
Ratio CORO1A (209083_at) (treated vs control): 2.38
Ratio CT45-2 (235700_at) (treated vs control): 30.39
Ratio CTAGE5 (215930_s_at) (treated vs control): 0.30
Ratio CTBS (218923_at) (treated vs control): 0.42
Ratio DHCR7 (201791_s_at) (treated vs control): 0.45
Ratio DKFZP586A0522 (207761_s_at) (treated vs control): 2.97
Ratio DNAJB9 (1554462_a_at) (treated vs control): 0.42
Ratio DPYD (204646_at) (treated vs control): 0.48
Ratio DYRK4 (212954_at) (treated vs control): 0.42
Ratio EAF2 (219551_at) (treated vs control): 0.46
Ratio EIF2C2 (222294_s_at) (treated vs control): 0.52
Ratio EIF2S2 (208725_at) (treated vs control): 0.46
Ratio ELF4 (31845_at) (treated vs control): 1.75
Ratio ELL2 (226982_at) (treated vs control): 0.45
Ratio EPSTI1 (227609_at) (treated vs control): 1.99
Ratio ERN1 (235745_at) (treated vs control): 0.35
Ratio FKBP11 (219118_at) (treated vs control): 0.38
Ratio FLJ22028 (219802_at) (treated vs control): 0.44
Ratio FNDC3A (202304_at) (treated vs control): 0.40
Ratio G1P2 (205483_s_at) (treated vs control): 2.77
Ratio GALNT3 (203397_s_at) (treated vs control): 0.65
Ratio GLS (203157_s_at) (treated vs control): 0.42
Ratio GNG7 (228831_s_at) (treated vs control): 0.33
Ratio GOLPH3L (218361_at) (treated vs control): 0.45
Ratio GSK3B (226183_at) (treated vs control): 0.49
Ratio GSN (200696_s_at) (treated vs control): 3.97
Ratio H2-ALPHA (216323_x_at) (treated vs control): 2.56
Ratio HBS1L (209314_s_at) (treated vs control): 0.53
Ratio HEXIM1 (202814_s_at) (treated vs control): 2.18
Ratio HIST1H2BG (210387_at) (treated vs control): 2.00
Ratio HLA-DPA1 (211990_at) (treated vs control): 1.70
Ratio HN1 (217755_at) (treated vs control): 2.17
Ratio ID2 (201565_s_at) (treated vs control): 2.76
Ratio IDH1 (1555037_a_at) (treated vs control): 0.53
Ratio IER3 (201631_s_at) (treated vs control): 3.97
Ratio IFI27 (202411_at) (treated vs control): 2.84
Ratio IFI35 (209417_s_at) (treated vs control): 1.93
Ratio IFRD1 (202146_at) (treated vs control): 0.51
Ratio IGF1 (209541_at) (treated vs control): 0.43
Ratio IL21R (221658_s_at) (treated vs control): 0.50
Ratio INHBE (210587_at) (treated vs control): 0.55
Ratio INSIG1 (201625_s_at) (treated vs control): 0.34
Ratio ITGB7 (205718_at) (treated vs control): 2.11
Ratio KIAA0776 (212633_at) (treated vs control): 0.49
Ratio KIAA1509 (215343_at) (treated vs control): 2.21
Ratio KIF21B (204411_at) (treated vs control): 0.53
Ratio LOC220930 (229090_at) (treated vs control): 0.45
Ratio LRP16 (219188_s_at) (treated vs control): 0.36
Ratio MAGEA9 (210437_at) (treated vs control): 1.68
Ratio MAN1A1 (221760_at) (treated vs control): 0.43
Ratio MANEA (222805_at) (treated vs control): 0.51
Ratio MGC15875 (232488_at) (treated vs control): 0.55
Ratio MIRN21 (224917_at) (treated vs control): 1.99
Ratio MLLT11 (211071_s_at) (treated vs control): 2.53
Ratio MTHFD1L (225520_at) (treated vs control): 0.41
Ratio MUC1 (207847_s_at) (treated vs control): 2.92
Ratio MX1 (202086_at) (treated vs control): 1.73
Ratio MYLIP (223129_x_at) (treated vs control): 2.00
Ratio NFE2L1 (214179_s_at) (treated vs control): 0.59
Ratio NMES1 (223484_at) (treated vs control): 23.96
Ratio NMI (203964_at) (treated vs control): 1.86
Ratio NQO1 (201468_s_at) (treated vs control): 2.15
Ratio OAS1 (205552_s_at) (treated vs control): 1.65
Ratio OPN1SW (229549_at) (treated vs control): 0.40
Ratio PARP12 (218543_s_at) (treated vs control): 1.92
Ratio PCK2 (202847_at) (treated vs control): 0.47
Ratio PGM3 (221788_at) (treated vs control): 0.49
Ratio PHGDH (201397_at) (treated vs control): 0.36
Ratio PLAC1 (219702_at) (treated vs control): 0.42
Ratio PPAPDC1B (223569_at) (treated vs control): 0.42
Ratio PSCDBP (209606_at) (treated vs control): 0.48
Ratio PSPH (205194_at) (treated vs control): 0.38
Ratio RECQL (213878_at) (treated vs control): 0.44
Ratio RPL37 (224763_at) (treated vs control): 0.35
Ratio SAMD9 (228531_at) (treated vs control): 2.06
Ratio SCD (200831_s_at) (treated vs control): 0.39
Ratio SEC24D (202375_at) (treated vs control): 0.31
Ratio SEC63 (201915_at) (treated vs control): 0.51
Ratio SEL1L (202061_s_at) (treated vs control): 0.56
Ratio SESN2 (223195_s_at) (treated vs control): 0.47
Ratio SFN (33322_i_at) (treated vs control): 4.34
Ratio SLAMF7 (222838_at) (treated vs control): 0.51
Ratio SLC1A4 (209610_s_at) (treated vs control): 0.54
Ratio SLC1A5 (208916_at) (treated vs control): 0.40
Ratio SLC7A11 (209921_at) (treated vs control): 0.41
Ratio SNTB1 (226438_at) (treated vs control): 0.36
Ratio SP110 (208012_x_at) (treated vs control): 2.11
Ratio SSR3 (217790_s_at) (treated vs control): 0.40
Ratio STAT1 (209969_s_at) (treated vs control): 2.55
Ratio STCH (202558_s_at) (treated vs control): 0.47
Ratio STK17A (202693_s_at) (treated vs control): 2.52
Ratio SULT1A3 (210580_x_at) (treated vs control): 2.52
Ratio TBC1D16 (222116_s_at) (treated vs control): 0.70
Ratio TKTL1 (214183_s_at) (treated vs control): 85.24
Ratio TMEM39A (222690_s_at) (treated vs control): 0.46
Ratio TMEM49 (1569003_at) (treated vs control): 2.33
Ratio TPST2 (204079_at) (treated vs control): 2.20
Ratio TRIB3 (218145_at) (treated vs control): 0.41
Ratio TSC22D3 (208763_s_at) (treated vs control): 0.53
Ratio TUBA2 (210527_x_at) (treated vs control): 2.50
Ratio TUBA3 (209118_s_at) (treated vs control): 2.23
Ratio TUBB2 (204141_at) (treated vs control): 5.07
Ratio TUBE1 (226181_at) (treated vs control): 0.38
Ratio ZNF275 (225382_at) (treated vs control): 0.35
Ratio ZNF706 (227132_at) (treated vs control): 0.49
